# Measured values taken from US20220400680A1, “USE OF ACYLCYANAMIDES OR SALTS THEREOF FOR REGULATING PLANT GROWTH” (Alzchem Trostberg GmbH, priority 2019, published 2022).
# What was measured:
# [1] = tested on: Table cherry, type Burlat (C3); assay: Greenhouse test, cut cherry branches C3 dipped in test solution, bud development stage; assay type: in vivo, Prunus avium; parameters: key to Bud development stage, cherry branches C3: Stage 0: Buds unchanged; Stage 1: Buds slightly swollen, first green tips visible; Stage 2: strongly swollen, green buds; Stage 3: Buds before breaking open, leaf or flower root already visible; Stage 4: Flower buds fully developed, but still closed, white petals already visible. In the case of the grapevine, stage 4 was the unfolding of the first leaves; Stage 5: Flowers fully open or, in the case of grapevine, unfolding of the flower roots (“Gescheine”) on the fully leafed sprouts; conditions: for Good to very good dormancy-breaking effect, cherry C3: stage 4 reached or exceeded after 21 days vs negative control; for Dormancy-breaking effect according to the definition, cherry C3: stage 4 reached or exceeded after 27 days vs negative control
# Description: Greenhouse tests were conducted using cut fruit tree branches placed in water jars and maintained under controlled conditions with temperature regulation at approximately 22° C. and natural lighting. C3: Table Cherry, Type Burlat Table cherry: Prunus avium type Bigarreau Burlat or […] is a strong-growing somewhat sparse growing sweet cherry tree with horizontal side sprouts. The type has been known since 1930 and is one of the most important types in commercial cultivation. […] Medium but regular yields identify the type as a secondary type for early and dry areas. […] The test solutions were prepared directly, i.e. without intermediate preparation of a concentrate. For each of the test substances A-1 to A-13, an aqueous solution of 0.15 mol of the test substance and 0.15 g BreakThru® OE-446 was prepared and filled up to a total of 500 g with water. Of bis-cyanamides A-14 and A-15, 0.075 mol each was filled up to 500 g in an analogous manner. These test solutions (in combination with the above 4 species/types Cx) were given the test numbers Cx-A1 to Cx-A15. […] This was done with the following evaluation scale: • Stage 0: […] Flower buds fully developed, but still closed, white petals already visible. […] Flowers fully open or, in the case of grapevine, unfolding of the flower roots (“[…]”) on the fully leafed sprouts.
# [2] = tested on: Table apple, type Zabergäu-Renette (C2); assay: Greenhouse test, cut apple branches C2 dipped in test solution, bud development stage; assay type: in vivo, Malus domestica; parameters: key to Bud development stage, apple branches C2: Stage 0: Buds unchanged; Stage 1: Buds slightly swollen, first green tips visible; Stage 2: strongly swollen, green buds; Stage 3: Buds before breaking open, leaf or flower root already visible; Stage 4: Flower buds fully developed, but still closed, white petals already visible. In the case of the grapevine, stage 4 was the unfolding of the first leaves; Stage 5: Flowers fully open or, in the case of grapevine, unfolding of the flower roots (“Gescheine”) on the fully leafed sprouts
# Description: Greenhouse tests were conducted using cut fruit tree branches placed in water jars and maintained under controlled conditions with temperature regulation at approximately 22° C. and natural lighting. C2: Table Apple, Type […] Table apple: Malus domestica type […] first developed in 1885 as a chance seedling in Hausen a.d. Zaber/Baden-Württemberg and initially grown as 'Hausener Graue […]'. No defined storage type; requires heavy soils (loam). Tree growth initially strong with oblique upright leading branches, later medium with flat branches. Crown broad and flat-spherical with flat fruiting wood. Leaves large, broad oval and with clearly separated tip. Triploid type with late and long-lasting flowering. Yield starting early, medium high and somewhat alternate. […] The test solutions were prepared directly, i.e. without intermediate preparation of a concentrate. For each of the test substances A-1 to A-13, an aqueous solution of 0.15 mol of the test substance and 0.15 g BreakThru® OE-446 was prepared and filled up to a total of 500 g with water. Of bis-cyanamides A-14 and A-15, 0.075 mol each was filled up to 500 g in an analogous manner. These test solutions (in combination with the above 4 species/types Cx) were given the test numbers Cx-A1 to Cx-A15. […] This was done with the following evaluation scale: • Stage 0: […] Flower buds fully developed, but still closed, white petals already visible. […] Flowers fully open or, in the case of grapevine, unfolding of the flower roots (“[…]”) on the fully leafed sprouts.
# [3] = tested on: Table apple, type Boiken apple (C1); assay: Greenhouse test, cut apple branches C1 dipped in test solution, bud development stage; assay type: in vivo, Malus domestica; parameters: key to Bud development stage, apple branches C1: Stage 0: Buds unchanged; Stage 1: Buds slightly swollen, first green tips visible; Stage 2: strongly swollen, green buds; Stage 3: Buds before breaking open, leaf or flower root already visible; Stage 4: Flower buds fully developed, but still closed, white petals already visible. In the case of the grapevine, stage 4 was the unfolding of the first leaves; Stage 5: Flowers fully open or, in the case of grapevine, unfolding of the flower roots (“Gescheine”) on the fully leafed sprouts; conditions: for Dormancy-breaking effect according to the definition, apple C1: stage 4 reached or exceeded after 36 days vs negative control
# Description: Greenhouse tests were conducted using cut fruit tree branches placed in water jars and maintained under controlled conditions with temperature regulation at approximately 22° C. and natural lighting. C1: Table Apple, Type Boiken Apple Table apple: Malus domestica type Boiken first described in 1828 in Bremen after Deichvogt Boiken. Apple type for rough locations and for almost every soil suitable scattered fruit type, whereby heavy soils and not too warm locations are required. Tree growth initially strong, later medium. Older crowns become broadly spherical and are loosely branched. Flowering starting medium-late and long lasting, petals large with little pink. Yield starting late (October) and irregular; with long shelf life and pressure resistance. […] The test solutions were prepared directly, i.e. without intermediate preparation of a concentrate. For each of the test substances A-1 to A-13, an aqueous solution of 0.15 mol of the test substance and 0.15 g BreakThru® OE-446 was prepared and filled up to a total of 500 g with water. Of bis-cyanamides A-14 and A-15, 0.075 mol each was filled up to 500 g in an analogous manner. These test solutions (in combination with the above 4 species/types Cx) were given the test numbers Cx-A1 to Cx-A15. […] This was done with the following evaluation scale: • Stage 0: […] Flower buds fully developed, but still closed, white petals already visible. […] Flowers fully open or, in the case of grapevine, unfolding of the flower roots (“[…]”) on the fully leafed sprouts.
# [4] = tested on: Grape, type Pinot Noir (C4); assay: Greenhouse test, cut wine sprouts C4 dipped in test solution, bud development stage; assay type: in vivo, Vitis vinifera subsp. vinifera; parameters: key to Bud development stage, wine sprouts C4: Stage 0: Buds unchanged; Stage 1: Buds slightly swollen, first green tips visible; Stage 2: strongly swollen, green buds; Stage 3: Buds before breaking open, leaf or flower root already visible; Stage 4: Flower buds fully developed, but still closed, white petals already visible. In the case of the grapevine, stage 4 was the unfolding of the first leaves; Stage 5: Flowers fully open or, in the case of grapevine, unfolding of the flower roots (“Gescheine”) on the fully leafed sprouts; conditions: for Dormancy-breaking effect according to the definition, wine C4: stage 4 reached or exceeded after 36 days vs negative control
# Description: Greenhouse tests were conducted using cut fruit tree branches placed in water jars and maintained under controlled conditions with temperature regulation at approximately 22° C. and natural lighting. C4: Grape, Type Pinot Noir Grape: Vitis vinifera subsp. vinifera type Pinot Noir is an important and high quality red wine type that has existed for possibly 2000 years. It is cultivated all over the world because the type produces high quality red wines and has sufficient winter frost resistance. The type requires early and good areas with deep, warm, medium-heavy and fertile soils with good water supply. Pinot Noir produces regular, medium-high to high yields. However, there are a large number of clones that differ in yield, berry size and looseness. […] The test solutions were prepared directly, i.e. without intermediate preparation of a concentrate. For each of the test substances A-1 to A-13, an aqueous solution of 0.15 mol of the test substance and 0.15 g BreakThru® OE-446 was prepared and filled up to a total of 500 g with water. Of bis-cyanamides A-14 and A-15, 0.075 mol each was filled up to 500 g in an analogous manner. These test solutions (in combination with the above 4 species/types Cx) were given the test numbers Cx-A1 to Cx-A15. […] This was done with the following evaluation scale: • Stage 0: […] Flower buds fully developed, but still closed, white petals already visible. […] Flowers fully open or, in the case of grapevine, unfolding of the flower roots (“[…]”) on the fully leafed sprouts.
# [5] = T1 (14 d), 0.15 mol (A-14, A-15: 0.075 mol) per 500 g solution
smiles,measurement,setting,value
"CCCCCCCCCCCC(=O)NC#N.[Na] [Example A-10, Sodium dodecanoyl cyanamide]","Bud development stage, cherry branches C3",[1]; [5],1
same,"Bud development stage, cherry branches C3",[1]; T2 (16 d),2
same,"Bud development stage, cherry branches C3",[1]; T3 (21 d),4
same,"Bud development stage, cherry branches C3",[1]; T4 (27 d),4
same,"Bud development stage, cherry branches C3",[1]; T5 (36 d),4
same,"Bud development stage, cherry branches C3",[1]; T6 (56 d),5
same,"Good to very good dormancy-breaking effect, cherry C3",[1],good to very good dormancy-breaking effect
same,"Dormancy-breaking effect according to the definition, cherry C3",[1],dormancy-breaking effect
same,"Bud development stage, apple branches C2",[2]; [5],0
same,"Bud development stage, apple branches C2",[2]; T2 (16 d),0
same,"Bud development stage, apple branches C2",[2]; T3 (21 d),0
same,"Bud development stage, apple branches C2",[2]; T4 (27 d),1
same,"Bud development stage, apple branches C2",[2]; T5 (36 d),2
same,"Bud development stage, apple branches C2",[2]; T6 (56 d),4
same,"Bud development stage, apple branches C1",[3]; [5],1
same,"Bud development stage, apple branches C1",[3]; T2 (16 d),2
same,"Bud development stage, apple branches C1",[3]; T3 (21 d),4
same,"Bud development stage, apple branches C1",[3]; T4 (27 d),5
same,"Bud development stage, apple branches C1",[3]; T5 (36 d),5
same,"Bud development stage, apple branches C1",[3]; T6 (56 d),5
same,"Good to very good dormancy-breaking effect, apple C1",[3]; stage 4 reached or exceeded after 27 days vs negative control,good to very good dormancy-breaking effect
same,"Dormancy-breaking effect according to the definition, apple C1",[3],dormancy-breaking effect
same,"Bud development stage, wine sprouts C4",[4]; [5],0
same,"Bud development stage, wine sprouts C4",[4]; T2 (16 d),0
same,"Bud development stage, wine sprouts C4",[4]; T3 (21 d),0
same,"Bud development stage, wine sprouts C4",[4]; T4 (27 d),1
same,"Bud development stage, wine sprouts C4",[4]; T5 (36 d),2
same,"Bud development stage, wine sprouts C4",[4]; T6 (56 d),4
"N#CNC(=O)Cc1ccccc1.[Na] [Example A-12, Sodium phenylacetyl cyanamide]","Bud development stage, cherry branches C3",[1]; [5],0
same,"Bud development stage, cherry branches C3",[1]; T2 (16 d),1
same,"Bud development stage, cherry branches C3",[1]; T3 (21 d),2
same,"Bud development stage, cherry branches C3",[1]; T4 (27 d),5
same,"Bud development stage, cherry branches C3",[1]; T5 (36 d),5
same,"Bud development stage, cherry branches C3",[1]; T6 (56 d),5
same,"Dormancy-breaking effect according to the definition, cherry C3",[1],dormancy-breaking effect
same,"Bud development stage, apple branches C2",[2]; [5],0
same,"Bud development stage, apple branches C2",[2]; T2 (16 d),0
same,"Bud development stage, apple branches C2",[2]; T3 (21 d),3
same,"Bud development stage, apple branches C2",[2]; T4 (27 d),3
same,"Bud development stage, apple branches C2",[2]; T5 (36 d),4
same,"Bud development stage, apple branches C2",[2]; T6 (56 d),5
same,"Dormancy-breaking effect according to the definition, apple C2",[2]; stage 4 reached or exceeded after 36 days vs negative control,dormancy-breaking effect
same,"Bud development stage, apple branches C1",[3]; [5],0
same,"Bud development stage, apple branches C1",[3]; T2 (16 d),1
same,"Bud development stage, apple branches C1",[3]; T3 (21 d),2
same,"Bud development stage, apple branches C1",[3]; T4 (27 d),2
same,"Bud development stage, apple branches C1",[3]; T5 (36 d),5
same,"Bud development stage, apple branches C1",[3]; T6 (56 d),5
same,"Dormancy-breaking effect according to the definition, apple C1",[3],dormancy-breaking effect
same,"Bud development stage, wine sprouts C4",[4]; [5],0
same,"Bud development stage, wine sprouts C4",[4]; T2 (16 d),0
same,"Bud development stage, wine sprouts C4",[4]; T3 (21 d),1
same,"Bud development stage, wine sprouts C4",[4]; T4 (27 d),3
same,"Bud development stage, wine sprouts C4",[4]; T5 (36 d),4
same,"Bud development stage, wine sprouts C4",[4]; T6 (56 d),4
same,"Dormancy-breaking effect according to the definition, wine C4",[4],dormancy-breaking effect
"N#CNC(=O)CCC(=O)NC#N.[Na].[Na] [Example A-14, Disodium-(3-(cyano-amidocarbonyl)-propionyl-cyanamide)]","Bud development stage, cherry branches C3",[1]; [5],0
same,"Bud development stage, cherry branches C3",[1]; T2 (16 d),1
same,"Bud development stage, cherry branches C3",[1]; T3 (21 d),4
same,"Bud development stage, cherry branches C3",[1]; T4 (27 d),5
same,"Bud development stage, cherry branches C3",[1]; T5 (36 d),5
same,"Bud development stage, cherry branches C3",[1]; T6 (56 d),5
same,"Good to very good dormancy-breaking effect, cherry C3",[1],good to very good dormancy-breaking effect
same,"Dormancy-breaking effect according to the definition, cherry C3",[1],dormancy-breaking effect
same,"Bud development stage, apple branches C2",[2]; [5],0
same,"Bud development stage, apple branches C2",[2]; T2 (16 d),0
same,"Bud development stage, apple branches C2",[2]; T3 (21 d),0
same,"Bud development stage, apple branches C2",[2]; T4 (27 d),1
same,"Bud development stage, apple branches C2",[2]; T5 (36 d),3
same,"Bud development stage, apple branches C2",[2]; T6 (56 d),4
same,"Bud development stage, apple branches C1",[3]; [5],1
same,"Bud development stage, apple branches C1",[3]; T2 (16 d),1
same,"Bud development stage, apple branches C1",[3]; T3 (21 d),2
same,"Bud development stage, apple branches C1",[3]; T4 (27 d),3
same,"Bud development stage, apple branches C1",[3]; T5 (36 d),5
same,"Bud development stage, apple branches C1",[3]; T6 (56 d),5
same,"Dormancy-breaking effect according to the definition, apple C1",[3],dormancy-breaking effect
same,"Bud development stage, wine sprouts C4",[4]; [5],0
same,"Bud development stage, wine sprouts C4",[4]; T2 (16 d),0
same,"Bud development stage, wine sprouts C4",[4]; T3 (21 d),0
same,"Bud development stage, wine sprouts C4",[4]; T4 (27 d),2
same,"Bud development stage, wine sprouts C4",[4]; T5 (36 d),4
same,"Bud development stage, wine sprouts C4",[4]; T6 (56 d),4
same,"Dormancy-breaking effect according to the definition, wine C4",[4],dormancy-breaking effect
